Source: the Bradley open melting point set (2014)
Values joined by “and” are separate entries in the source; they are usually repeats but may differ in a detail not shown here. Equal entries are not always repeated. Structures can show the parent of a compound that is named as a salt.

In order of falling melting point:
1. NC(CC(=O)O)C(=O)O (stereo not drawn) [aspartic acid]  275 °C
2. Nc1ncnc2c1ncn2Cc1c(F)cccc1Cl [arprinocid]  245 °C
3. OB(O)c1ccc(-c2ccccc2)cc1 [biphenyl-4-boronic acid]  243 °C
4. O=C1OC(c2ccc(O)c3ccccc23)(c2ccc(O)c3ccccc23)c2ccccc21 [alpha-naphtholphthalein]  239 °C
5. NC(=O)c1ccc(-c2ccccc2)cc1 [biphenyl-4-carboxamide]  228 °C
6. c1ccc(-c2ccnc3c2ccc2c(-c4ccccc4)ccnc23)cc1 [bathophenanthroline]  220 °C
7. OB(O)c1ccccc1 [benzeneboronic acid]  217 °C
8. O=[N+]([O-])/C=C/c1ccc([N+](=O)[O-])cc1 [beta,4-dinitrostyrene]  204 °C
9. CC1(C)S[C@@H]2[C@H](NC(=O)[C@H](N)c3ccccc3)C(=O)N2[C@H]1C(=O)O [ampicillin]  200 °C
10. CC(C)(Oc1ccc(CCNC(=O)c2ccc(Cl)cc2)cc1)C(=O)O [bezafibrate]  186 °C
11. Nc1cccc(-n2ccccc2=O)c1 [amphenidone]  183 °C
12. CC1(C)COB(B2OCC(C)(C)CO2)OC1 [bis(neopentyl glycolato)diboron]  183 °C
13. OB(O)c1ccccc1-c1ccccc1 [biphenyl-2-boronic acid]  179 °C
14. N#Cc1c2ccccc2cc2ccccc12 [anthracene-9-carbonitrile]  177 °C
15. ClC1C(Cl)C(Cl)C(Cl)C(Cl)C1Cl (stereo not drawn) [alpha-hexachlorocyclohexane]  160 °C
16. OC(c1ccccc1)(c1ccccc1)C1CCNCC1 [azacyclonol]  160 °C
17. C(=Cc1ccccc1)Cc1ccccc1 [benzene, 1,1'-(1-propene-1,3-diyl)bis-]  155 °C
18. CCCCOc1ccc(CC(=O)NO)cc1 [bufexamac]  153 °C
19. COc1ccc(CCN2CCC(Nc3nc4ccccc4n3Cc3ccc(F)cc3)CC2)cc1 [astemizole]  149 °C
20. CNC(=O)c1cc([N+](=O)[O-])cc([N+](=O)[O-])c1 [benzamide, N-methyl-3,5-dinitro-]  149 °C
21. CC(=O)Oc1ccccc1C(=O)O [aspirin] [listing 2 of 2 here]  142 °C
22. CCCN(CCC)C(=O)Cc1c(-c2ccc(Cl)cc2)nc2ccc(Cl)cn12 [alpidem]  140 °C
23. CC(=O)Oc1ccccc1C(=O)O [aspirin] [listing 1 of 2 here]  138 °C
24. N#Cc1ccc2ncsc2c1 [benzothiazole-6-carbonitrile]  138 °C
25. O=Cc1ccc(O)cc1O [b-Resorcylaldehyde]  136 °C
26. O=C(c1ccccc1)C(O)c1ccccc1 (stereo not drawn) [benzoin] [listing 1 of 2 here]  135 °C
27. O=C(c1ccccc1)C(O)c1ccccc1 (stereo not drawn) [benzoin] [listing 2 of 2 here]  134 °C
28. C=C(Br)CC1(C(C)CC)C(=O)NC(=O)NC1=O (stereo not drawn) [butallylonal]  132 °C
29. CC12CCC=C1C1CCC3CC(O)CCC3(C)C1CC2 (stereo not drawn) [androst-14-en-3-ol]  130 °C
30. O=[N+]([O-])/C=C/c1cccc([N+](=O)[O-])c1 [beta,3-dinitrostyrene]  126 °C
31. CCCCNCC(O)c1ccc(O)cc1 (stereo not drawn) [bamethan]  124 °C
32. O=C(O)c1ccccc1 [benzoic acid]  122 °C
33. CS(=O)(=O)OCCCCOS(C)(=O)=O [busulfan]  116 °C
34. CCCC(N)=O [butyramide]  116 °C
35. CN1CCC(N(Cc2ccccc2)c2ccccc2)CC1 [bamipine]  114 °C
36. O=C2\C(=C(/N(N2c1ccccc1)C)C)N(C)C [aminopyrine]  108 °C
37. CC12CCC3C(CCC4CCCCC43C)C1CC(=O)C2 (stereo not drawn) [androstan-16-one]  108 °C
38. OCc1cc2ccccc2s1 [benzo[b]thiophene-2-methanol]  100 °C
39. CCOC(=O)c1ccc(N)cc1 [benzocaine]  92 °C
40. CC(C)(C)OC(=O)N[C@@H](Cc1ccccc1)C(=O)O [boc-phenylalanine]  87 °C
41. c1ccc2c(c1)OCCOCCOCCOCCO2 [benzo-15-crown-5]  80 °C
42. O=C(O)C(=O)CBr [bromopyruvic acid]  78 °C
43. Cc1ccc(CS(=O)(=O)Cl)cc1 [alpha-p-xylenesulfonyl chloride]  77 °C
44. Fc1c(F)c(F)c(P(c2ccccc2)c2c(F)c(F)c(F)c(F)c2F)c(F)c1F [bis(pentafluorophenyl)phenylphosphine]  62 °C
45. Brc1ccc(Oc2ccc(Br)cc2)cc1 [bis-p-bromophenyl_ether]  60 °C
46. CC(=O)CC(=O)c1ccccc1 [benzoylacetone]  59 °C
47. O=Cc1ccc(-c2ccccc2)cc1 [biphenyl-4-carboxaldehyde]  59 °C
48. CCCCOC(=O)c1ccc(N)cc1 [butyl 4-aminobenzoate]  58 °C
49. CCCCOC(=O)c1ccc(N)cc1 [butyl p-aminobenzoate]  58 °C
50. O=S(=O)(O)c1ccccc1 [benzenesulfonic acid]  48 °C
51. C[Si](C)(C)OS(=O)(=O)O[Si](C)(C)C [bis(trimethylsilyl) sulfate]  46 °C
52. O=C(NCc1ccccc1)OCCO [buramate]  40 °C
53. ClC(c1ccccc1)c1ccccc1 [benzhydryl chloride]  19 °C
54. O=C(OCc1ccccc1)c1ccccc1 [benzyl benzoate]  19 °C
55. O=C(OCc1ccccc1)c1ccccc1 [benzyl_benzoate]  19 °C
56. NCc1ccccc1 [benzylamine]  10 °C
57. BrC(Br)Br [bromoform]  9 °C
58. OCc1ccccc1 [benzyl alcohol]  -15 °C
59. C1O[C@@H]1[C@H]1CO1 [butadiene diepoxide]  -19 °C
60. CCCCOc1ccccc1 [butyl_phenyl_ether]  -19 °C
61. Brc1ccccc1 [bromobenzene]  -31 °C
62. ClCCOCCCl [bis(2-chloroethyl) ether]  -50 °C
63. CCCCC(CC)COC(=O)c1ccccc1C(=O)OCC(CC)CCCC (stereo not drawn) [bis-2-ethylhexyl_phthalate]  -50 °C
64. CC(=O)OCc1ccccc1 [benzyl acetate]  -51 °C
65. CC(=O)OCc1ccccc1 [benzyl_acetate]  -51 °C
66. COCc1ccccc1 [benzyl_methyl_ether]  -52 °C
67. ClC(Cl)Br [bromodichloromethane]  -55 °C
68. C=C1CCC2CC1C2(C)C (stereo not drawn) [b-pinene]  -61 °C
69. CC1=CC[C@@H]2C[C@H]1C2(C)C [alpha-pinene]  -62 °C
70. CCCCC1CCCCC1 [butylcyclohexane]  -75 °C
71. CCCC(=O)OC(=O)CCC [butyric anhydride]  -75 °C
72. CCCCC#N [butyl_cyanide]  -96 °C
73. CCBr [bromoethane]  -119 °C

For `c1ccc2cc3ccccc3cc2c1` [anthracene], the melting point was 216 °C (4×) and 218 °C.
For `O=C2\C=C(/N(N2c1ccccc1)C)C` [antipyrine], the melting point was 111 °C and 112 °C and 109 °C.
For `NC(=O)c1ccccc1` [benzamide], the melting point was 129 °C and 130 °C.
In the case of `SCc1ccccc1` [benzyl mercaptan], the melting point is reported as -29 °C and -29.2 °C.
For `CCCCOC(=O)CCC` [butyl butyrate], the melting point was -92 °C (3×) and -91.5 °C (2×).
